Assays:
Assay in all cases: NCI one-dose SRB growth assay
Type in all cases: cell-based
A549/ATCC = conditions: Homo sapiens; A549/ATCC (Non-Small Cell Lung Cancer), 10^-5 M, 48 h; read-out: % Growth Inhibition (GI %)
Method: (§1) A primary anticancer assay was performed for an approximately 60 human tumor cell line panel derived from nine neoplastic diseases, in accordance with the protocol of the Drug Evaluation Branch, National Cancer Institute, Bethesda, MD (Monks A. et al., J. Natl. Cancer Inst 1991, 83, 757-766; Boyd M.R. and Paull K.D., Drug. Dev. Res. 1995, 34, 91-109; Shoemaker R.H., Nat. Rev. Cancer 2006, 6, 813-823). Briefly, tested compounds were added to the culture at a single concentration (10^-5M), and the cultures were incubated for 48 h. End point determinations were made with a protein binding dye, sulforhodamine B (SRB). The results for each tested compound were reported as the growth percentage of the treated cells when compared to that of the untreated control cells. The percentage growth was evaluated spectrophotometrically versus controls not treated with test agents.

BT-549 = conditions: Homo sapiens; BT-549 (Breast Cancer), 10^-5 M, 48 h; read-out: % Growth Inhibition (GI %)
Method: as §1

CCRF-CEM = conditions: Homo sapiens; CCRF-CEM (Leukemia), 10^-5 M, 48 h; read-out: % Growth Inhibition (GI %)
Method: as §1

HCC-2998 = conditions: Homo sapiens; HCC-2998 (Colon Cancer), 10^-5 M, 48 h; read-out: % Growth Inhibition (GI %)
Method: as §1

HCT-116 = conditions: Homo sapiens; HCT-116 (Colon Cancer), 10^-5 M, 48 h; read-out: % Growth Inhibition (GI %)
Method: as §1

HCT-15 = conditions: Homo sapiens; HCT-15 (Colon Cancer), 10^-5 M, 48 h; read-out: % Growth Inhibition (GI %)
Method: as §1

IGROV1 = conditions: Homo sapiens, IGROV-1; IGROV1 (Ovarian Cancer), 10^-5 M, 48 h; read-out: % Growth Inhibition (GI %)
Method: as §1

K-562 = conditions: Homo sapiens, K562; K-562 (Leukemia), 10^-5 M, 48 h; read-out: % Growth Inhibition (GI %)
Method: as §1

LOX IMVI = conditions: Homo sapiens; LOX IMVI (Melanoma), 10^-5 M, 48 h; read-out: % Growth Inhibition (GI %)
Method: as §1

M14 = conditions: Homo sapiens; M14 (Melanoma), 10^-5 M, 48 h; read-out: % Growth Inhibition (GI %)
Method: as §1

MALME-3M = conditions: Homo sapiens; MALME-3M (Melanoma), 10^-5 M, 48 h; read-out: % Growth Inhibition (GI %)
Method: as §1

MDA-MB-231/ATCC = conditions: Homo sapiens; MDA-MB- 231/ATCC (Breast Cancer), 10^-5 M, 48 h; read-out: % Growth Inhibition (GI %)
Method: as §1

MOLT-4 = conditions: Homo sapiens; MOLT-4 (Leukemia), 10^-5 M, 48 h; read-out: % Growth Inhibition (GI %)
Method: as §1

NCI-H226 = conditions: Homo sapiens; NCI-H226 (Non-Small Cell Lung Cancer), 10^-5 M, 48 h; read-out: % Growth Inhibition (GI %)
Method: as §1

NCI-H522 = conditions: Homo sapiens; NCI-H522 (Non-Small Cell Lung Cancer), 10^-5 M, 48 h; read-out: % Growth Inhibition (GI %)
Method: as §1

OVCAR-3 = conditions: Homo sapiens; OVCAR-3 (Ovarian Cancer), 10^-5 M, 48 h; read-out: % Growth Inhibition (GI %)
Method: as §1

OVCAR-5 = conditions: Homo sapiens; OVCAR-5 (Ovarian Cancer), 10^-5 M, 48 h; read-out: % Growth Inhibition (GI %)
Method: as §1

SF-268 = conditions: Homo sapiens; SF-268 (CNS Cancer), 10^-5 M, 48 h; read-out: % Growth Inhibition (GI %)
Method: as §1

SK-MEL-28 = conditions: Homo sapiens; SK-MEL-28 (Melanoma), 10^-5 M, 48 h; read-out: % Growth Inhibition (GI %)
Method: as §1

SK-OV-3 = conditions: Homo sapiens; SK-OV-3 (Ovarian Cancer), 10^-5 M, 48 h; read-out: % Growth Inhibition (GI %)
Method: as §1

SNB-75 = conditions: Homo sapiens; SNB-75 (CNS Cancer), 10^-5 M, 48 h; read-out: % Growth Inhibition (GI %)
Method: as §1

SW-620 = conditions: Homo sapiens; SW-620 (Colon Cancer), 10^-5 M, 48 h; read-out: % Growth Inhibition (GI %)
Method: as §1

TK-10 = conditions: Homo sapiens; TK-10 (Renal Cancer), 10^-5 M, 48 h; read-out: % Growth Inhibition (GI %)
Method: as §1

UACC-62 = conditions: Homo sapiens; UACC-62 (Melanoma), 10^-5 M, 48 h; read-out: % Growth Inhibition (GI %)
Method: as §1

UO-31 = conditions: Homo sapiens; UO-31 (Renal Cancer), 10^-5 M, 48 h; read-out: % Growth Inhibition (GI %)
Method: as §1

SR = conditions: Homo sapiens; SR (Leukemia), 10^-5 M, 48 h; read-out: % Growth Inhibition (GI %)
Method: as §1

| Compound | inhibition at 10 µM (A549/ATCC) [%] | inhibition at 10 µM (BT-549) [%] | inhibition at 10 µM (CCRF-CEM) [%] | inhibition at 10 µM (HCC-2998) [%] | inhibition at 10 µM (HCT-116) [%] | inhibition at 10 µM (HCT-15) [%] | inhibition at 10 µM (IGROV1) [%] | inhibition at 10 µM (K-562) [%] | inhibition at 10 µM (LOX IMVI) [%] | inhibition at 10 µM (MALME-3M) [%] | inhibition at 10 µM (MDA-MB-231/ATCC) [%] | inhibition at 10 µM (MOLT-4) [%] | inhibition at 10 µM (NCI-H226) [%] | inhibition at 10 µM (NCI-H522) [%] | inhibition at 10 µM (OVCAR-3) [%] | inhibition at 10 µM (OVCAR-5) [%] | inhibition at 10 µM (SF-268) [%] | inhibition at 10 µM (SK-OV-3) [%] | inhibition at 10 µM (SNB-75) [%] | inhibition at 10 µM (SW-620) [%] | other results |
| --- | --- | --- | --- | --- | --- | --- | --- | --- | --- | --- | --- | --- | --- | --- | --- | --- | --- | --- | --- | --- | --- |
| CCn1cc(C(=O)O)c(=O)c2cc(F)c(N3CCN(S(=O)(=O)c4ccc(Cl)cc4)CC3)cc21 [Compound 1a] | 84.4 | 87.4 | > 100 | 75.5 | 95.2 | 84.3 | 90.6 | 78.6 | 80.1 | 76.2 | 58.9 | 76.4 | 39.9 | 91.6 | 71.8 | 48.1 | 77.3 | 59.2 | 58.2 | 76 | inhibition at 10 µM (M14): 81.1%; inhibition at 10 µM (SK-MEL-28): 55.4%; inhibition at 10 µM (TK-10): 46.4%; inhibition at 10 µM (UACC-62): 78.5%; inhibition at 10 µM (UO-31): 48.9% |
| CCn1cc(C(=O)O)c(=O)c2cc(F)c(N3CCN(S(=O)(=O)c4ccc(Cl)cc4Cl)CC3)cc21 [Compound 2a] | 98 | > 100 | 97.2 | 69.4 | 93.6 | 92.4 | 92.5 | 89.1 | > 100 | > 100 | 74.5 | 98.2 | 86.9 | > 100 | 92.1 | 92.1 | 75.4 | 98.3 | 25.2 | 83.7 | inhibition at 10 µM (M14): 84.1%; inhibition at 10 µM (SK-MEL-28): < 10%; inhibition at 10 µM (SR): > 100%; inhibition at 10 µM (TK-10): 87.6%; inhibition at 10 µM (UACC-62): 83.8%; inhibition at 10 µM (UO-31): > 100% |
| O=C(O)c1cn(C2CC2)c2cc(N3CCN(S(=O)(=O)c4ccc(Cl)cc4Cl)CC3)c(F)cc2c1=O [Compound 2b] | < 10 | 13.7 | 19 | < 10 | 13.4 | 16.2 | < 10 | < 10 | 38.6 | < 10 | < 10 | 24.1 | 39.7 | < 10 | < 10 | < 10 | 16.4 | < 10 | 70.2 | < 10 | inhibition at 10 µM (M14): < 10%; inhibition at 10 µM (SK-MEL-28): 49.1%; inhibition at 10 µM (SR): 17.7%; inhibition at 10 µM (TK-10): < 10%; inhibition at 10 µM (UACC-62): 14.6%; inhibition at 10 µM (UO-31): 40% |
| O=c1[nH]cc(F)c(=O)[nH]1 [Compound 5-FU, 5-fluorouracil, reference compound] | 34.2 | 37.8 | 57.1 | > 100 | 17.8 | 26.5 | 51.2 | 42.3 | 30.4 | 58.2 | 78.1 | 43.1 | 69.5 | 58 | 47.4 | 44.3 | 59 | 77.5 | 65.9 | 50.1 | inhibition at 10 µM (SR): 24.8%; inhibition at 10 µM (TK-10): 66.9%; inhibition at 10 µM (UACC-62): 39.7%; inhibition at 10 µM (UO-31): 41.3% |

Source: patent EP2987533B1, “7-substituted piperazin-1-yl fluoroquinolone compounds, their use in the treatment of cancer, pharmaceutical compositions and a method for preparation” (priority 2014, dated 2016)
